Measured values as given in US5750550A, “2-(pyrazol-5-yl-oxymethyl)-1,2-benzisothiazol-3 (2H)-One 1, 1-dioxides and compositions and method of use thereof” (Sanofi, priority 1995, dated 1998).

These compounds were tested against T1, human leukocyte elastase (Homo sapiens, UniProt P08246) (assay: human leukocyte elastase (HLE) inhibitory activity, substrate MeOSuc-Ala-Ala-Pro-Val-pNA). Settings: pH 7.8, 25° C., steady-state velocities.
T1 sequence (P08246 30-267): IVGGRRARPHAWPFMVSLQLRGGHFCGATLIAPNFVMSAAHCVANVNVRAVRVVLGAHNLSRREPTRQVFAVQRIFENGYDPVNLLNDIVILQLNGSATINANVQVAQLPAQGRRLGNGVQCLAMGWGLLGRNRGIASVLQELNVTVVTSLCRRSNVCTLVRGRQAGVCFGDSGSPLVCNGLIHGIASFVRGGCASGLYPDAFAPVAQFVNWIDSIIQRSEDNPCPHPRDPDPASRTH
Assay type: biochemical
Experimental: The test compound (inhibitor) is dissolved in DMSO in a vial to produce an inhibitor stock solution which has a concentration in the range of 200-1000 μM. The inhibitor stock solution is diluted (1:4, 1:16 and 1:64) into assay vials (vials 1, 2 and 3 respectively) containing 2.4 mL of buffer solution (50 mM N-[2-hydroxyethyl] piperazine-N'-[2-ethanesulfonic acid]/NaOH, 500 mM NaCl, pH 7.8 at 25° C.) and DMSO is added so that the total volume in each vial is 3.2 mL. 70 μL, 50 μL, 35 μL and 25 μL of inhibitor from assay vial 1 is placed into the first four wells of a 96-well microtiter plate and each well is made up to 90 μL total volume with the addition of a 25% DMSO/buffer solution. The inhibitor from assay vials 2 and 3 is processed in a similar manner and placed in wells 5-12 respectively to afford a total of 12 different inhibitor concentrations. Four wells (wells 13-16) containing 90 μL of the 25% DMSO/buffer solution but no inhibitor are also run simultaneously with the inhibited wells as a control. 150 μL of substrate solution (prepared by the addition of 500 μL of the human leukocyte elastase (HLE) substrate MeOSuc-Ala-Ala-Pro-Val-pNA (18.7 mM in DMSO) to 19.5 mL of buffer solution) is then added simultaneously into each of the 16 wells and the solution in each well was thoroughly mixed.
The 96-well microtiter plate is placed into a Microplate Reader #89815A spectrophotometer and 110 μL of the enzyme solution (prepared as follows: a mixture of 20 mL of buffer solution and 20 mg of bovine serum albumen is gently vortexed in a scintillation vial and 5 μL HLE stock solution (1 mg/mL dissolved in deionized water) is added) is added simultaneously to each of the 16 wells. Each of the solutions in the wells is throughly mixed and then the time-dependent absorbance data is collected at an absorbance of 410 nm until the assay is complete. It should be noted that although this assay method can be done manually, it is preferred to perform the assay robotically using a Hewlett Packard MicroAssay System Robot. the absorbance versus time data thus obtained affords curves the final slope of which is equal to the final steady-statevelocities (VF). Using the program ENZFITTER (Elsevier software), the progress curves for the four control assays ([I]=0 are fit by linear regression to yield the enzyme reaction velocity values in the absences of inhibitor (Vo) which are averaged to produce a single fixed value. The inhibition constant Ki (nM) is then obtained from a plot of [formula] which affords a linear plot wherein: [formula] and [S] is the concentration of the substrate and Km is the Michaelis constant.
Table I summarizes the results obtained from the testing of compounds of the invention for human leukocyte elastase inhibitory activity.

| Ki | Structure (SMILES) |
| --- | --- |
| 470 pM | COc1cc(C(C)C)c2c(c1)S(=O)(=O)N(COc1cc(-c3ccccc3)nn1C)C2=O [2 (b), 4-isopropyl-6-methoxy-2-(1-methyl-3-phenylpyrazol-5-yl-oxymethyl)-1,2-benzisothiazol-3(2H)-one 1,1-dioxide] |
| 440 pM | COc1cc(C(C)C)c2c(c1)S(=O)(=O)N(COc1cc(C)nn1-c1ccccc1)C2=O [4 (b), 4-isopropyl-6-methoxy-2-(1-phenyl-3-methylpyrazol-5-yl-oxymethyl)-1,2-benzisothiazol-3(2H)-one 1,1-dioxide] |
| 920 pM | COc1cc(C(C)C)c2c(c1)S(=O)(=O)N(COc1cc(-c3ccccc3)nn1-c1ccccc1)C2=O [5 (b), 4-isopropyl-6-methoxy-2-(1,3-diphenylpyrazol-5-yl-oxymethyl)-1,2-benzisothiazol-3(2H)-one 1,1-dioxide] |
| 145 pM | COc1cc(C(C)C)c2c(c1)S(=O)(=O)N(COc1ccnn1-c1ccccc1)C2=O [6 (c), 4-isopropyl-6-methoxy-2-(1-phenylpyrazol-5-yl-oxymethyl)-1,2-benzisothiazol-3(2H)-one 1,1-dioxide] |
| 110 pM | COc1cc(C(C)C)c2c(c1)S(=O)(=O)N(COc1cc(C(F)(F)F)nn1-c1ccc(Cl)cc1)C2=O [8 (b), 4-isopropyl-6-methoxy-2-[1-(4-chlorophenyl)-3-trifluoromethylpyrazol-5-yl-oxymethyl]-1,2-benzisothiazol-3(2H)-one 1,1-dioxide] |
| 24 pM | COc1cc(C(C)C)c2c(c1)S(=O)(=O)N(COc1cc(C(F)(F)F)nn1-c1ccccn1)C2=O [10 (b), 4-isopropyl-6-methoxy-2-[1-(2-pyridyl)-3-trifluoromethylpyrazol-5-yl-oxymethyl]-1,2-benzisothiazol-3(2H)-one 1,1-dioxide] |
| 89 pM | COc1cc(C(C)C)c2c(c1)S(=O)(=O)N(COc1cc(C(F)(F)F)nn1-c1ccc([N+](=O)[O-])cc1)C2=O [11 (c), 4-isopropyl-6-methoxy-2-[1-(4-nitrophenyl)-3-trifluoromethylpyrazol-5-yl-oxymethyl)-1,2-benzisothiazol-3(2H)-one 1,1-dioxide] |
| 190 pM | COc1cc(C(C)C)c2c(c1)S(=O)(=O)N(COc1cc(-c3ccncc3)nn1-c1ccc(Cl)cc1)C2=O [14 (c), 4-isopropyl-6-methoxy-2-[1-(4-chlorophenyl)-3-(4-pyridyl)pyrazol-5-yl-oxymethyl]-1,2-benzisothiazol-3(2H)-one 1,1-dioxide] |
| 130 pM | COc1ccc(-n2nc(C(F)(F)F)cc2OCN2C(=O)c3c(C(C)C)cc(OC)cc3S2(=O)=O)cc1 [15 (b), 4-isopropyl-6-methoxy-2-[1-(4-methoxyphenyl)-3-trifluoromethylpyrazol-5-yl-oxymethyl)-1,2-benzisothiazol-3(2H)-one 1,1-dioxide] |
| 1600 pM | COc1cc(C(C)C)c2c(c1)S(=O)(=O)N(COc1c(Cl)c(C(F)(F)F)nn1-c1ccccc1)C2=O [16 (b), 4-isopropyl-6-methoxy-2-(1-phenyl-3-trifluoromethyl-4-chloropyrazol-5-yl-oxymethyl)-1,2-benzisothiazol-3(2H)-one 1,1-dioxide] |
| 36 pM | CC(C)c1cc(OCCCC(=O)O)cc2c1C(=O)N(COc1cc(C(F)(F)F)nn1-c1ccccc1)S2(=O)=O [17 (b), 4-isopropyl-6-[3-(carboxy)propoxy]-2-(1-phenyl-3-trifluoromethylpyrazol-5-yl-oxymethyl)-1,2-benzisothiazol-3(2H)-one 1,1-dioxide] |
| 220 pM | CC(C)c1cc(OCC(C)(C)C(=O)O)cc2c1C(=O)N(COc1cc(C(F)(F)F)nn1-c1ccccc1)S2(=O)=O [18 (b), 4-isopropyl-6-[2-(carboxy-2-methyl)propoxy]-2-(1-phenyl-3-trifluoromethylpyrazol-5-yl-oxymethyl)-1,2-benzisothiazol-3(2H)-one 1,1-dioxide] |
| 820 pM | COc1cc(C(C)C)c2c(c1)S(=O)(=O)N(COc1cc(-c3c(F)c(F)c(F)c(F)c3F)nn1-c1ccccc1)C2=O [19 (c)] |
| 37 pM | COc1cc(C(C)C)c2c(c1)S(=O)(=O)N(COc1cc(C(F)(F)F)nn1-c1cccnc1)C2=O [20 (c), 4-isopropyl-6-methoxy-2-[1-(3-lpyridyl)-3-(trifluoromethyl)pyrazol-5-yl-oxymethyl]-1,2-benzisothiazol-3(2H)-one 1,1-dioxide] |
| 180 pM | COc1cc(C(C)C)c2c(c1)S(=O)(=O)N(COc1cc(C(F)(F)F)nn1-c1ccncc1)C2=O [22 (b), 4-isopropyl-6-methoxy-2-[1-(4-pyridyl)-3-trifluoromethylpyrazol-5-yl-oxymethyl]-1,2-benzisothiazol-3(2H)-one 1,1-dioxide] |
| 65 pM | COc1cc(C(C)C)c2c(c1)S(=O)(=O)N(COc1cc(C(=O)NCCN3CCCC3)nn1-c1ccccc1)C2=O [23 (b), 4-isopropyl-6-methoxy-2-[1-phenyl-3-(C(O)NH(CH2)2-1-pyrrolidinyl)pyrazol-5-yl-oxymethyl]-1,2-benzisothiazol-3(2H)-one 1,1-dioxide] |
| 26 pM | COc1cc(C(C)C)c2c(c1)S(=O)(=O)N(COc1cc(Cl)nn1-c1ccccc1)C2=O [24 (c), 4-isopropyl-6-methoxy-2-(1-phenyl-3-chloropyrazol-5-yl-oxymethyl)-1,2-benzisothiazol-3(2H)-one 1,1-dioxide] |
| 150 pM | COc1cc(C(C)C)c2c(c1)S(=O)(=O)N(COc1cc(C(F)(F)F)nn1-c1ccc3ccccc3n1)C2=O [27 (b), 4-isopropyl-6-methoxy-2-[1-(2-quinolinyl)-3-(trifluoromethyl)pyrazol-5-yl-oxymethyl]-1,2-benzisothiazol-3(2H)-one 1,1-dioxide] |
| 89 pM | COc1cc(C(C)C)c2c(c1)S(=O)(=O)N(COc1cc(C(F)(F)F)nn1-c1ccc(Cl)cn1)C2=O [28 (c), 4-isopropyl-6-methoxy-2-[1-(5-chloro-2-pyridyl)-3-(trifluoromethyl)pyrazol-5-yl-oxymethyl]-1,2-benzisothiazol-3(2H)-one 1,1-dioxide] |
| 82 pM | CCN(CC)Cc1ccc(COc2cc(C(C)C)c3c(c2)S(=O)(=O)N(COc2cc(C(F)(F)F)nn2-c2ccccc2)C3=O)o1 [29 (b)] |
| 70 pM | COc1cc(C(C)C)c2c(c1)S(=O)(=O)N(COc1cc(C(F)(F)F)nn1-c1ccccc1Cl)C2=O [30 (b), 4-isopropyl-6-methoxy-2-[1-(2-chlorophenyl)-3-trifluoromethylpyrazol-5-yl-oxymethyl]-1,2-benzisothiazol-3(2H)-one 1,1-dioxide] |
| 143 pM | CCN(CC)CCN(C)C(=O)c1cc(OCN2C(=O)c3c(C(C)C)cc(OC)cc3S2(=O)=O)n(-c2ccccc2)n1 [31 (b)] |
| 55 pM | COc1cc(C(C)C)c2c(c1)S(=O)(=O)N(COc1cc(C(F)(F)F)nn1-c1ccc(Cl)nn1)C2=O [32 (c), 4-isopropyl-6-methoxy-2-[1-(3-chloropyridazin-6-yl)-3-trifluoromethylpyrazol-5-yl-oxymethyl]-1,2-benzisothiazol-3(2H)-one 1,1-dioxide] |
| 27 pM | COc1cc(C(C)C)c2c(c1)S(=O)(=O)N(COc1cc(C(F)(F)F)nn1-c1ncc(Cl)cc1C(F)(F)F)C2=O [34 (b), 4-isopropyyl-6-methoxy-2-[1-(5-chloro-3-trifluoromethyl-2-pyridyl)-3-trifluoromethylpyrazol-5-yl-oxymethyl]-1,2-benzisothiazol-3(2H)-one 1,1-dioxide] |
| 29 pM | COc1cc(C(C)C)c2c(c1)S(=O)(=O)N(COc1cc(C(F)(F)F)nn1-c1cccc(C(F)(F)F)n1)C2=O [36 (b), 4-isopropyl-6-methoxy-2-[1-(6-trifluoromethyl-2-pyridyl)-3-trifluoromethylpyrazol-5-yl-oxymethyl]-1,2-benzisothiazol-3(2H)-one 1,1-dioxide] |

| Structure (SMILES) | Ki |
| --- | --- |
| COc1cc(C(C)C)c2c(c1)S(=O)(=O)N(COc1cc(C(=O)OC(C)(C)C)nn1-c1ccccc1)C2=O [33 (b), 4-isoorooyl-6-methoxy-2-[1-phenyl-3-(t-butoxycarbonyl)pyrazol-5-yl-oxymethyl]-1,2-benzisothiazol-23 (2H)-one 1,1-dioxide] | 100 pM |
